Assay results as given in patent publication US20250092035A1, “ISOCITRATE DEHYDROGENASE 1 INHIBITORS AND METHODS OF USE THEREOF” (THE WISTAR INSTITUTE OF ANATOMY AND BIOLOGY, priority 2022, published 2025).
Like-named read-outs stand apart in the source and are kept apart here.

Columns and labels:
[1] = molecular target: T1, IDH1 (Homo sapiens, UniProt O75874); test: Two-step binding kinetics (Example 1, assay not described)
[2] = molecular target: T1, IDH1; test: IC50 in two trials and mean (Example 1, assay not described); assay type: biochemical
[3] = molecular target: T1, IDH1; test: IC50 dose-response curve fits (Example 1, assay not described); assay type: biochemical; details: for Bottom / Slope / Top: curve-fit parameter; for IC50: curve fit
[4] = reported (ref. 52); cited from earlier work
[5] = Microsomal stability (mouse liver microsome assay)
[6] = test system: MiaPaCa2 xenograft
Experimental: In vivo studies. […] Mice were maintained under pathogen-free conditions in the animal facility. No additional food or nutrient-contained bedding provided to the animals during these studies. […] Mice with subcutaneous PDX were purchased from The Jackson Laboratory (#TM01212). […] Mice were imaged weekly to monitor tumor progression and tumor volume was assessed for each mouse and plotted longitudinally. […] All experiments with KPC mice were performed under a UK Home Office license and approved by the University of Glasgow Animal Welfare and Ethical Review Board. […] Tamoxifen dissolved in corn oil at 20 mg/ml, and animals received tamoxifen (75 mg/kg, IP administration, once daily) for six consecutive days. For flank xenograft experiments, 1×10^6 cells were suspended in 200 μL of a PBS:matrigel solution (1:1) and injected subcutaneously into the right flank of mice. For orthotopic experiments, 4×10^4 Luciferase-expressing KPC K8484 cells were suspended in 50 μL of a PBS:matrigel solution (1:1) and injected into the pancreas of C57BL/6 mice at 12 weeks of age. Equal number of male and female mice were used. Mice were anesthetized using isoflurane gas. After ensuring appropriate depth of anesthesia, a 0.5 cm left subcostal incision was made to gain access into the peritoneal cavity. The tail of the pancreas was externalized and the mixture was carefully injected into the pancreas. […]

[7] = Mouse pharmacokinetics study; details: CD-1, mouse, plasma, ip, 10 mg/kg
[8] = 1st step, read-out: KiAPP (affinity for 1st step)
[9] = 2nd step, read-out: KiAPP* (affinity for 2nd step)
[10] = Trial 1, read-out: IC50, Trial 1
[11] = Trial 2, read-out: IC50, Trial 2
[12] = mean of the trials, read-out: Mean IC50

T1 sequence (O75874 whole entry): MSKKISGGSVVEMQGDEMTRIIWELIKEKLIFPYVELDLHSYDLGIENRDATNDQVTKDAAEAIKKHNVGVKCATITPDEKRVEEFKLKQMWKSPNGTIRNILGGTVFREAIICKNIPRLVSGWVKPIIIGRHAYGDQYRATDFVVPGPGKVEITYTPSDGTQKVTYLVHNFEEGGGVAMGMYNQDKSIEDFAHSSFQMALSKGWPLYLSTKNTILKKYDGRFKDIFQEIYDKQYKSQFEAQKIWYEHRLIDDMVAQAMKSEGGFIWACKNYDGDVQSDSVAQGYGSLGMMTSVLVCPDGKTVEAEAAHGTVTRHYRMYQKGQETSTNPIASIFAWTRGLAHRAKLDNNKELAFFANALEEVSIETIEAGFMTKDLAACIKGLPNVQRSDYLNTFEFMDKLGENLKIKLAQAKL

Row | SMILES | IC50 [2, 10] | IC50 [2, 11] | IC50 [2, 12] | further results
1 | CC1(C)CN(C(=O)c2cn[nH]c2)Cc2c(C(=O)Nc3cccc(NC(=O)CCCl)c3)nn(Cc3ccc(C(F)(F)F)cc3)c21 [FSM-05-141] |  |  |  | k5 (on rate for 2nd step, min−1) [1]: 0.257 min⁻¹; k6 (off rate for 2nd step) [1]: 0.002 min⁻¹; Ki [1, 8]: 12500 nM; Ki [1, 9]: 82.2 nM
2 | CC1(C)CN(C(=O)c2cccs2)Cc2c(C(=O)Nc3cccc(C(=O)NC4CCCC4)c3)nn(Cc3ccc(F)cc3)c21 [IAP-1-35] | 69 nM | 70 nM | 69 nM | 
3 | CC1(C)CN(C(=O)c2cccs2)Cc2c(C(=O)Nc3cccc(C(=O)NC4CCCCC4)c3)nn(Cc3ccc(F)cc3)c21 [IAP-1-37] | 19 nM | 18 nM | 19 nM | 
4 | C[C@@H]1CN(C(=O)c2ccc[nH]2)Cc2c(C(=O)Nc3cccc([C@@H](C)O)c3)nn(Cc3ccc(F)cc3)c21 [FSM-206, reference compound] |  |  |  | Bottom [3]: −0.8; Slope [3]: 1.0; Top [3]: 98.0; bioavailability [4]: poor bioavailability
5 | CC1(C)CN(C(=O)c2ccc[nH]2)Cc2c(C(=O)Nc3ncco3)nn(Cc3ccc(F)cc3)c21 [FSM-2-113] | 1270 nM | 1050 nM | 1160 nM | 
6 | Cc1ncc2n1-c1ccc(Cl)cc1C(c1ccccc1F)=NC2 [Midazolam, reference compound] |  |  |  | half-life at 0.5 μM ([5]; microsomes): 1.76 min
7 | CC1(C)CN(C(=O)c2cccs2)Cc2c(C(=O)Nc3cccc(C(N)=O)c3)nn(Cc3ccc(F)cc3)c21 [FSM-2-96] | 265 nM | 253 nM | 259 nM | 
8 | Cc1ncsc1-c1ccc(CNC(=O)[C@@H]2C[C@@H](O)CN2C(=O)C(NC(=O)CCCCCCOc2cccc(NC(=O)c3nn(Cc4ccc(F)cc4)c4c3CN(C(=O)c3ccc[nH]3)CC4(C)C)c2)C(C)(C)C)cc1 (stereo partly shown) [FSM-3-17] |  |  |  | half-life at 0.5 μM ([5]; liver microsomes): 19.5 min
9 | CC1(C)CN(C(=O)c2cccs2)Cc2c(C(=O)Nc3nccs3)nn(Cc3ccc(F)cc3)c21 [FSM-2-116] | > 10000 nM | 8110 nM | 8110 nM | 
10 | C=CC(=O)Nc1cccc(NC(=O)c2nn(Cc3ccc(C(F)(F)F)cc3)c3c2CN(C(=O)c2cn[nH]c2)CC3(C)C)c1 [FSM-05-157] |  |  |  | k5 (on rate for 2nd step, min−1) [1]: 0.306 min⁻¹; k6 (off rate for 2nd step) [1]: 0.001 min⁻¹; Ki [1, 8]: 23600 nM; Ki [1, 9]: 64.8 nM
11 | Cn1cccc1C(=O)N1Cc2c(C(=O)Nc3ccccc3)nn(Cc3ccc(F)cc3)c2C(C)(C)C1 [VV-1-19] | 73 nM | 73 nM | 73 nM | 
12 | CC1(C)CN(C(=O)c2cccs2)Cc2c(C(=O)Nc3cccc(C(=O)O)c3)nn(Cc3ccc(F)cc3)c21 [FSM-2-98] | 6260 nM | 5070 nM | 5630 nM | 
13 | COc1cccc(NC(=O)c2nn(Cc3ccc(C(F)(F)F)cc3)c3c2CN(C(=O)c2ccc[nH]2)CC3(C)C)c1 [FSM-2-277] |  |  |  | IC50 [3]: 2.9 nM; Bottom [3]: 11.8; Slope [3]: 1.0; Top [3]: 99.3
14 | COc1cccc(NC(=O)c2nn(Cc3ccc(C(F)(F)F)cc3)c3c2CN(C(=O)c2cccs2)CC3(C)C)c1 [FSM-2-278] |  |  |  | IC50 [3]: 2.9 nM; Bottom [3]: 4.6; Slope [3]: 1.0; Top [3]: 98.0
15 | CC1(C)CN(C(=O)c2cn[nH]c2)Cc2c(C(=O)Nc3ccc(F)cc3)nn(Cc3ccc(C(F)(F)F)cc3)c21 [FSM-3-002, N-(4-Fluorophenyl)-7,7-dimethyl-5-(1H-pyrazole-4-carbonyl)-1-(4-(trifluoromethyl)benzyl)-4,5,6,7-tetrahydro-1H-pyrazolo[4,3-c]pyridine-3-carboxamide] |  |  |  | xenograft growth ([6]; 75 mg/kg IP once daily): marked reduction in MiaPaCa2 xenograft growth; tolerability ([6]; mouse, in vivo, ip, 75 mg/kg): well-tolerated; Cmax [7]: 2320 ng/mL; half-life at 0.5 μM ([5]; liver microsomes): 147 min
16 | CC1(C)CN(C(=O)c2ccc[nH]2)Cc2c(C(=O)Nc3nccs3)nn(Cc3ccc(F)cc3)c21 [FSM-2-115] | > 10000 nM | > 10000 nM | > 10000 nM | 
17 | CC1(C)CN(C(=O)c2cccs2)Cc2c(C(=O)Nc3ncco3)nn(Cc3ccc(F)cc3)c21 [FSM-2-114] | 1380 nM | 1230 nM | 1300 nM | 
18 | CC1(C)CN(C(=O)c2ccc[nH]2)Cc2c(C(=O)Nc3cccc(C(N)=O)c3)nn(Cc3ccc(F)cc3)c21 [FSM-2-95] | 309 nM | 294 nM | 301 nM | 
19 | COc1ccc(NC(=O)c2nn(Cc3ccc(C(F)(F)F)cc3)c3c2CN(C(=O)c2cccs2)CC3(C)C)cc1 [FSM-2-276] |  |  |  | IC50 [3]: 2.8 nM; Bottom [3]: 15.8; Slope [3]: 1.4; Top [3]: 98.9
20 | CC(O)c1cccc(NC(=O)c2nn(Cc3ccc(C(F)(F)F)cc3)c3c2CN(C(=O)c2cn[nH]c2)CC3(C)C)c1 (stereo not shown) [FSM-2-302] |  |  |  | IC50 [3]: 36 nM; Bottom [3]: 4.0; Slope [3]: 1.0; Top [3]: 97.9; half-life at 0.5 μM ([5]; liver microsomes): 56.6 min
21 | CC(O)c1cccc(NC(=O)c2nn(Cc3ccc(F)cc3)c3c2CN(C(=O)c2cccn2C)CC3(C)C)c1 (stereo not shown) [IAP-1-39] | 45 nM | 47 nM | 46 nM | 
22 | CC1(C)CN(C(=O)c2cn[nH]c2)Cc2c(C(=O)Nc3cccc(F)c3)nn(Cc3ccc(C(F)(F)F)cc3)c21 [FSM-3-02] |  |  |  | IC50 [3]: 113 nM; Bottom [3]: −0.9; Slope [3]: 1.0; Top [3]: 95.0
23 | CC1(C)CN(C(=O)c2ccc[nH]2)Cc2c(C(=O)Nc3cccc(C(=O)O)c3)nn(Cc3ccc(F)cc3)c21 [FSM-2-97] | > 10000 nM | 7830 nM | 7830 nM | 
24 | CC1(C)CN(C(=O)c2ccc[nH]2)Cc2c(C(=O)Nc3cccc(C(=O)NC4CCCC4)c3)nn(Cc3ccc(F)cc3)c21 [IAP-1-34] | 88 nM | 95 nM | 91 nM | 
25 | CC1(C)CN(C(=O)c2ccc[nH]2)Cc2c(C(=O)Nc3cccc(C(=O)NC4CC4)c3)nn(Cc3ccc(F)cc3)c21 [IAP-1-23] | 1030 nM | 961 nM | 996 nM | 
26 | COc1ccc(NC(=O)c2nn(Cc3ccc(C(F)(F)F)cc3)c3c2CN(C(=O)c2ccc[nH]2)CC3(C)C)cc1 [FSM-2-275] |  |  |  | IC50 [3]: 3.3 nM; Bottom [3]: 3.6; Slope [3]: 1.3; Top [3]: 99.1
27 | Cc1c[nH]c(C(=O)N2Cc3c(C(=O)Nc4cccc(C(C)O)c4)nn(Cc4ccc(F)cc4)c3C(C)(C)C2)c1 (stereo not shown) [IAP-1-40] | 520 nM | 475 nM | 497 nM | 
